ChEMBL document CHEMBL1138963, “Design, synthesis, and pharmacological evaluation of R/S-3,4-dihydro-2,2-dimethyl- 6-halo-4-(phenylaminocarbonylamino)-2H-1-benzopyrans: toward tissue-selective pancreatic beta-cell KATP channel openers structurally related to (+/-)-cromakalim” (J Med Chem, 2006)

Experiments:
Pancreatic beta cell [1] = assay: Selectivity ratio, IC50 for Wistar rat pancreatic islet beta cells/EC50 for aortic rings; type: functional
Pancreatic beta cell [2] = assay: Inhibition of insulin release in Wistar rat pancreatic islet beta cells; type: functional, cell-based
Pancreatic beta cell [3] = assay: Residual insulin release in Wistar rat pancreatic islet beta cells in presence of glucose at 1 uM; type: functional
Pancreatic beta cell [4] = assay: Residual insulin release in Wistar rat pancreatic islet beta cells in presence of glucose at 10 uM; type: functional
Rattus norvegicus = species on record: Rattus norvegicus; assay: Myorelaxant activity against KCL-induced contraction of Wistar rat aortic rings; type: functional; conditions: Aorta

Compound	IC50 (Pancreatic beta cell [2]) [µM]	EC50 (Rattus norvegicus) [µM]	Selectivity ratio (Pancreatic beta cell [1])	Activity (Pancreatic beta cell [3]) [%]	Activity (Pancreatic beta cell [4]) [%]
Cc1ccc(NC(=O)NC2CC(C)(C)Oc3ccc(Cl)cc32)cc1 (stereo not drawn)	–	> 30	–	–	69.5
Cc1cccc(NC(=O)NC2CC(C)(C)Oc3ccc(Br)cc32)c1 (stereo not drawn)	–	> 10	–	–	63.4
COc1cccc(NC(=O)NC2CC(C)(C)Oc3ccc(F)cc32)c1 (stereo not drawn)	–	> 10	–	–	66.6
Cc1ccc(NC(=O)NC2CC(C)(C)Oc3ccc(F)cc32)cc1 (stereo not drawn)	–	> 30	–	–	70.6
COc1ccc(NC(=O)NC2CC(C)(C)Oc3ccc(F)cc32)cc1 (stereo not drawn)	–	15.5	–	–	89
COc1ccc(NC(=O)NC2CC(C)(C)Oc3ccc(Cl)cc32)cc1 (stereo not drawn)	–	> 30	–	–	79.3
COc1cccc(NC(=O)NC2CC(C)(C)Oc3ccc(Cl)cc32)c1 (stereo not drawn)	–	> 10	–	–	84
Cc1cccc(NC(=O)NC2CC(C)(C)Oc3ccc(F)cc32)c1 (stereo not drawn)	–	> 30	–	–	75.2
COc1ccc(NC(=O)NC2CC(C)(C)Oc3ccc(Br)cc32)cc1 (stereo not drawn)	–	> 10	–	–	79.2
Cc1cccc(NC(=O)NC2CC(C)(C)Oc3ccc(Cl)cc32)c1 (stereo not drawn)	–	> 10	–	–	65.8
CC1(C)CC(NC(=O)Nc2ccc(Cl)cc2)c2cc(F)ccc2O1 (stereo not drawn)	3.6	> 30	<0.12	91.4	22.8
CC1(C)CC(NC(=O)Nc2cccc(Cl)c2)c2cc(F)ccc2O1 (stereo not drawn)	3.67	> 300	<0.01	86	28
COc1cccc(NC(=O)NC2CC(C)(C)Oc3ccc(Br)cc32)c1 (stereo not drawn)	–	> 10	–	–	73.5
CC1(C)CC(NC(=O)Nc2ccccc2)c2cc(Cl)ccc2O1 (stereo not drawn)	–	7.8	–	–	87.7
COc1ccccc1NC(=O)NC1CC(C)(C)Oc2ccc(F)cc21 (stereo not drawn)	–	> 10	–	–	84.4
CC1(C)CC(NC(=O)Nc2ccccc2)c2cc(F)ccc2O1 (stereo not drawn)	–	17.1	–	–	83.8
Cc1ccc(NC(=O)NC2CC(C)(C)Oc3ccc(Br)cc32)cc1 (stereo not drawn)	–	> 30	–	–	72.9
CC1(C)Oc2ccc(C#N)cc2C(N2CCCC2=O)C1O (racemic) [CROMAKALIM]	> 100	0.13	>769.23	95.3	94.4

Second part, led by results:

IC50 (Pancreatic beta cell [2]) [µM]	EC50 (Rattus norvegicus) [µM]	Compound	Selectivity ratio (Pancreatic beta cell [1])	Activity (Pancreatic beta cell [3]) [%]	Activity (Pancreatic beta cell [4]) [%]
4.06	> 30	CC1(C)CC(NC(=O)Nc2cccc(Cl)c2)c2cc(Br)ccc2O1 (stereo not drawn)	<0.14	91.5	28.6
–	> 30	CC1(C)CC(NC(=O)Nc2ccccc2Cl)c2cc(Br)ccc2O1 (stereo not drawn)	–	–	41.8
–	> 300	CC1(C)CC(NC(=O)Nc2ccccc2Cl)c2cc(Cl)ccc2O1 (stereo not drawn)	–	–	40.3
–	2.3	CC1(C)CC(NC(=O)Nc2ccccc2)c2cc(Br)ccc2O1 (stereo not drawn)	–	–	75.9
–	> 10	COc1ccccc1NC(=O)NC1CC(C)(C)Oc2ccc(Br)cc21 (stereo not drawn)	–	–	72.8
–	> 30	Cc1ccccc1NC(=O)NC1CC(C)(C)Oc2ccc(Br)cc21 (stereo not drawn)	–	–	79.5
–	> 30	CC1(C)CC(NC(=O)Nc2ccccc2Cl)c2cc(F)ccc2O1 (stereo not drawn)	–	–	51.4
–	> 30	Cc1ccccc1NC(=O)NC1CC(C)(C)Oc2ccc(F)cc21 (stereo not drawn)	–	–	79
–	> 10	Cc1ccccc1NC(=O)NC1CC(C)(C)Oc2ccc(Cl)cc21 (stereo not drawn)	–	–	85
3.85	> 300	CC1(C)CC(NC(=O)Nc2ccc(Cl)cc2)c2cc(Br)ccc2O1 (stereo not drawn)	<0.01	92.2	25.7
–	> 10	COc1ccccc1NC(=O)NC1CC(C)(C)Oc2ccc(Cl)cc21 (stereo not drawn)	–	–	94.6
